Source: patent US10172899B2, “Composition for preventing, treating and improving of voiding dysfunction comprising extract from Piper longum L” (priority 2014, dated 2019)
Each block holds one compound with its values, some of them ahead of it.

What was measured:
[1] = tested on: spontaneously hypertensive rat (SHR); experiment: Urodynamic study in SHR under un-anesthesia; type: in vivo
Method: 12˜18 Week-old male SHRs were purchased from Charles River (Japan) and used. Day and night were controlled by a 12 hour cycle, and they were allowed to access to food and water freely. All the rats had to urinate at 3-5 cycles under a condition with no administration. The micturition parameters of rats under a condition with no administration were considered as control groups for urodynamic parameters, while the rats, to which the water extract of Piper Longum L. fruits prepared in Preparation Example 4.2 was directly administered into gastrointestinal tracts at 300 mg/kg via catheters coupled to stomachs, became experimental groups. As a positive control group, rats administered with tolterodine at 1 mg/kg were used. The Piper Longum L. water extract and tolterodine-dosing groups were each set by 6 rats.
To measure bladder pressure, bladder capacity, voiding volume and micturition interval, which are parameters for identifying improvement of voiding dysfunction, insertion of a bladder tube and a vessel for measuring an abdominal pressure was carried out in SHR models. For cystometry and injection of a physiological saline solution, a rat was incised in center of its lower abdomen 3 days before the day of measuring urodynamic parameters, and a cuffed polyethylene catheter with a cuff (PE-50, Becton Dickinson, Parsippany, USA) was fixed on its bladder dome with purse-string suture. In addition, a polyethylene catheter (PE-10, Becton Dickinson, Parsippany, USA) with a balloon for measuring abdominal pressure was fixed on the bladder, and another polyethylene catheter (PE-10, Becton Dickinson, Parsippany, USA) was fixed following being inserted in the gastrointestinal tract. The above catheters were passed through beneath skin, and then fixed on dorsal skin, the ends of which were closed by applying heat. An un-anesthetized rat being free was placed in a metabolic cage at 3 days after inserting a bladder tube and a vessel for measuring an abdominal pressure. The tube on the back of its neck was coupled to a microinjection pump (PHD22/2000 pump; Harvard Apparatus) and a pressure transducer (Research Grade Blood Pressure Transducer; Harvard Apparatus, Holliston, USA) with a T-tube, and then intravesical pressures were measured, with injecting the physiological saline solution at room temperate at a speed of 10 ml/hour. It is to measure intravesical pressures in the rat using a principle that when a predetermined volume of physiological saline solution is filled in the bladder, it is contracted to urinate. The abdominal pressure was measured by coupling the vessel for measuring abdominal pressure to the other pressure transducer. Also, to measure a voiding volume being an indicator of volume parameter, the voiding volume was measured from a urine amount collected in a urine collector cup (fluid collector) coupled to a force displacement transducer (Research Grade Isometric Transducer; Harvard Apparatus).
Beginning to measure urodynamic parameters before administration of the extracts of Piper Longum L. and tolterodine, records of 3 to 5 stabilized micturition cycles were obtained. Then, the Piper Longum L. extracts and tolterodine were orally administered after decoupling the catheter. The catheters were again coupled thereto 20 minutes after oral administration of drugs, and voiding cycles and urodynamic study were carried out by having the rat to urinate 3 to 5 times. The average values of each parameter were measured by selecting the most representative 3 continuous cycles from voiding cycles measured before and after administration of drug.
In 3 repeated voiding cycles, a basal pressure (BP), which is an parameter of intravesical pressure, is the lowest pressure in cystometry, a threshold pressure (TP) is a pressure immediately before micturition contraction, and a micturition pressure (MP) means the maximum bladder pressure represented on voiding. […]

muscarinic M2 receptor = target: T1, muscarinic M2 receptor (Homo sapiens, UniProt P08172); experiment: Relief of acetylcholine inhibition of forskolin-induced cAMP in human bladder smooth muscle cells (ELISA); type: cell-based; settings: 10 μM, with Forskolin 10 μM + ACh 10 μM
T1 construct: The human bladder smooth muscle Cells (hBdSMC) where the muscarinic M2 receptor had been expressed were purchased from Lonza; host or cells: human bladder smooth muscle cells (hBdSMC)
T1 sequence (P08172 1-466): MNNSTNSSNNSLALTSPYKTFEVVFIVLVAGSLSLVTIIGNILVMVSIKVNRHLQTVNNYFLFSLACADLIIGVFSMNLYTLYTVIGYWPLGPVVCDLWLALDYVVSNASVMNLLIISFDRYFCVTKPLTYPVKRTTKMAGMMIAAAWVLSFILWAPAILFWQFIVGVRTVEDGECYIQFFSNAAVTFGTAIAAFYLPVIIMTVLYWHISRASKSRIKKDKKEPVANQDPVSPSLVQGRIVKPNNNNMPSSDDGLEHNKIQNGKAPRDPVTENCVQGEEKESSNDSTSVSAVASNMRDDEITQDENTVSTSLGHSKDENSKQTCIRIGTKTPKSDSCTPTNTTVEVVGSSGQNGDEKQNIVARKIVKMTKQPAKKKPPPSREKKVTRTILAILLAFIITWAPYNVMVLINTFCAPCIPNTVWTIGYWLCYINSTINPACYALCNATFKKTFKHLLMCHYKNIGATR
Description: It is known that when muscarinic M2 receptor, which is one of GPCR (G protein-coupled receptors), is coupled with acetylcholine being an agonist it inhibits activity of adenylyl cyclase enzyme to decrease a concentration of cAMP in cells, in which if the amount of cAMP increases, detrusor is relaxed, or otherwise if the amount of cAMP decreases, detrusor is contracted. Therefore, in confirming improvement of voiding dysfunction, it is important to identify an effect of being capable of increasing or decreasing the amount of cAMP. Accordingly, it was identified whether or not the extract of Piper Longum L. has activity of inhibiting muscarinic receptor that may inhibit decrease of a concentration of cAMP by acetylcholine, by pre-treating 95% by volume of aqueous solution of ethanol extract of Piper Longum L., treating it with acetylcholine which may serve as an activator of muscarinic M2 receptor to induce decrease of a concentration of cAMP, and treating it with Forskolin that may raise a concentration of cAMP in cells. More specifically, the procedure is as follows.
The human bladder smooth muscle Cells (hBdSMC) where the muscarinic M2 receptor had been expressed were purchased from Lonza (cambrex), and used. […] The amount of cAMP in cells was evaluated by measuring absorbance (408 nm) with an ELISA kit from the supernatant taken after centrifuging cells dissolved in 0.1M HCl.

[2] = tested on: CYP-induced cystitis rat model; experiment: Cystometry in CYP-induced cystitis model after dosing for 3 days (Example 6.2); type: in vivo; settings: extract 200 mg/kg from 3 days before cystometry; oxybutynin 0.3 mg/kg via caudal vein on the day
Method: 65 of specific pathogen-free (SPF) SD female rats were purchased from ORIENT (Korea) and used. Day and night were controlled by a 12 hour cycle, and they were allowed to access to food and water freely.
(§1) To measure bladder pressure, bladder capacity and voiding volume, which are parameters for identifying improvement of voiding dysfunction, cyclophosphamide (150 mg/kg) was once intraperitoneally administered to rats excluding a normal control group to induce irritable bladder symptoms at 3 days before cystometry. From 3 Days before cystometry, a solvent (DMSO/10% Cremophor EL=1:9, vol/vol) had been administrated to a solvent control group, and 95% by volume of aqueous ethanol solution extract of Piper Longum L. fruits prepared in Preparation Example 4.1 had been administrated to an experimental group at 200 mg/kg. In addition, oxybutynin as a positive control group was injected via a caudal vein at 0.3 mg/kg on the day of experiment.
(§2) For cystometry and injection of a physiological saline solution, instruments for cystometry and insertion of a bladder vessel were the same as in the above Example 5.2, and voiding volume and residual volume were recorded by sampling urine in a 1.5 ml tube and measuring its weight.
The basal pressure (BP), threshold pressure (TP), micturition pressure (MP) and micturition interval (MI) which are defined as in the above Example 5.2. In addition, a voiding volume being an parameter of volume parameter was defined by sampling urine in a 1.5 ml tube on the last voiding during urodynamic measurements and measuring its weight. After completing micturition, a residual volume was defined by placing the catheter inserted into bladder at the lower portion than the rat and measuring the weight of the obtained physiological saline. A bladder capacity (BC) was calculated by combining the measured residual volume (RV) and voiding volume (VV) of the rat.
The voiding cycles were measured for 120 minutes, and the average values of each parameter were calculated by selecting the most representative 5 continuous cycles among the measured voiding cycles.

[3] = tested on: CYP-induced cystitis rat model; experiment: Cystometry in CYP-induced cystitis model, ethanol and water extracts (Example 6.3); type: in vivo; settings: extracts 200 mg/kg, oxybutynin 0.3 mg/kg
Method: as §1, §2
The basal pressure (BP), threshold pressure (TP), micturition pressure (MP) and micturition interval (MI) which are defined as in the above Example 5.2. […] A bladder capacity (BC) was calculated by combining the measured residual volume (RV) and voiding volume (VV) of the rat. […]

[4] = After Dosing, water extract 300 mg/kg, tolterodine 1 mg/kg
[5] = after vs before dosing, increase

Structure (SMILES): Cc1ccc(O)c([C@H](CCN(C(C)C)C(C)C)c2ccccc2)c1 [Tolterodine, tolterodine]
BC (bladder capacity) [1, 4]: 0.41 ± 0.03 mL | BP (basal pressure) [1, 4]: 4.8 ± 1.1 cmH2O | MI (micturition interval) [1, 4]: 365.4 ± 31.8 s | MP (micturition pressure) [1, 4]: 50.5 ± 1.7 cmH2O | RV (residual volume) [1, 4]: 0 ± 0 mL | TP (threshold pressure) [1, 4]: 18.1 ± 1.7 cmH2O | VV (voiding volume) [1, 4]: 0.41 ± 0.03 mL | BC, Percentage Change (%) [1, 5]: 36.7% ↑ | MI, Percentage Change (%) [1, 5]: 46.4% ↑ | VV, Percentage Change (%) [1, 5]: 36.7% ↑

cAMP (muscarinic M2 receptor): 28.21 pmol/mL | cAMP, % of forskolin (muscarinic M2 receptor): 91.39%
Structure (SMILES): CCN(CC)CC#CCOC(=O)C(O)(c1ccccc1)C1CCCCC1 (stereo not drawn) [Oxybutynin, oxybutynin]
BC (bladder capacity) [2]: 0.46 ± 0.14 mL | BP (basal pressure) [2]: 9.7 ± 3.1 cm H2O | MI (micturition interval) [2]: 221.54 ± 75.20 s | MP (micturition pressure) [2]: 29.2 ± 7.9 cm H2O | RV (residual volume) [2]: 0.30 ± 0.13 mL | TP (threshold pressure) [2]: 17.6 ± 4.3 cm H2O | VV (voiding volume) [2]: 0.16 ± 0.08 mL | MI (micturition interval) [3]: 248.50 ± 144.43 s | VV (voiding volume) [3]: 0.24 ± 0.15 mL
